Assay results published in patent US12564595B2, “Prophylactic and therapeutic pharmaceutical agent for HIV infectious diseases characterized by comprising combination of integrase inhibitor and anti-HIV agent” (Shionogi & Co., Ltd., priority 2019, dated 2026).

Key:
[1] = tested on: HIV mutant strain 2 (E92Q/E138T/G140S/Q148H); assay: Test Example 2: resistance evaluation test (HeLa-CD4 reporter), mutant strain 2; assay type: cell-based; details: FC=EC50 of mutant strain/EC50 of wild strain; HeLa-CD4 cells
Protocol: (§1) A serial dilution series of test samples in 96-well microplates was prepared (50 […]).
(§2) 2.5×10^4/mL of HeLa-CD4 cell suspension was dispensed into each of the microplates containing test sample, in the amount of 100 μL/well, and HIV virus liquid (wild strain and mutant strain) was then dispensed in an amount of 50 μL/well. Mixing was performed using a plate mixer and culturing was performed for three days in a CO2 incubator. After removing the cultured supernatant of each well by suction, 100 μL of the cell solution buffer in the reporter measurement kit was dispensed thereto, and freezing was conducted in a refrigerator (−80° C.). The plates frozen in the refrigerator were defrosted at room temperature, then mixed using a plate mixer and centrifuged for 5 min at 1,200 rpm. The supernatant of each well was divided to 96-well microplates (BLACK) in the amount of 20 μL in each case. The chemiluminescence reagent in the reporter assay kit was dispensed in the amount of 100 μL in each case, and, after reacting for about 1 h at room temperature, the amount of luminescence was measured using a MicroBeta TRILUX.
(§3) The degree of resistance (fold change (FC)) of each mutant strain was also calculated using the following formula. FC=EC50 of mutant strain/EC50 of wild strain (Results)
(§4) The results of the example compounds relating to formula (I) of (A) are shown below. The […] in respect of mutant strain 1 (E138K/G140S/Q148H/N155H) and the FC in respect of mutant strain 2 (E92Q/E138T/G140S/Q148H) are shown in the Table.

[2] = Test Example 8: metabolic stability test; assay type: in vitro ADME, human
Protocol: The extent of metabolization of the compound according to the present invention in the liver was evaluated by reacting commercially available pooled human liver microsomes with the compound according to the present invention for a fixed time and calculating the remaining percentage by comparing the reaction sample with an unreacted sample.
The reaction (oxidative reaction) was conducted for 0 min or 30 min at 37° C. in the presence of 1 mmol/L of NADPH, in a 0.2 mL buffer solution containing 0.5 mg of human liver microsome protein/mL (50 mmol/L Tris-HCl pH 7.4, 150 mmol/L potassium chloride, 10 mmol/L magnesium chloride). After the reaction, 50 μL of reaction liquid were added to 100 μL of methanol/acetonitrile=1/1 (v/v) solution, mixed, and centrifuged for 15 minutes at 3000 rpm. The compound according to the present invention in the centrifuged supernatant was quantified using LC/MS/MS or solid phase extraction (SPE)/MS; the residual amount of the compound according to the present invention after the reaction was calculated, taking the amount of the compound at the 0 min reaction point as 100%.

[3] = tested on: HIV mutant strain 1 (E138K/G140S/Q148H/N155H); assay: Test Example 2: resistance evaluation test (HeLa-CD4 reporter), mutant strain 1; assay type: cell-based; details: FC=EC50 of mutant strain/EC50 of wild strain; HeLa-CD4 cells
Protocol: as §1, §2, §3, §4

[4] = pooled human liver microsomes, 30 min at 37° C., NADPH, compound concentration 0.5 μmol/L
[5] = human, microsomes, 0.5 h, 0.5 μmol/L, pH 7.4

Row | SMILES | FC in respect of mutant strain 2 (E92Q/E138T/G140S/Q148H) [1] | Remaining percentage [2, 4] | FC in respect of mutant strain 1 (E138K/G140S/Q148H/N155H) [3] | Remaining percentage [2, 5]
1 | CN1C(=O)c2c(O)c(=O)c(C(=O)NCc3cccc(Cl)c3F)cn2N2C[C@@H]3CC[C@@H](O3)[C@@H]12 [II-058] | 15 | 97.7% | 25 | 
2 | C[C@H]1CC[C@H]2N(C)C(=O)c3c(O)c(=O)c(C(=O)NCc4ccc(Cl)cc4F)cn3N2C1 [II-063] | 25 | 95.7% | 38 | 
3 | CCN1C(=O)c2c(O)c(=O)c(C(=O)NCc3ccc(F)cc3F)cn2N2CC[C@H](C)C[C@@H]12 [II-064] | 22 | 104% | 27 | 
4 | CCN1C(=O)c2c(O)c(=O)c(C(=O)NCc3ccc(F)cc3)cn2N2CCCC[C@@H]12 [II-070] | 36 | 100% | 32 | 
5 | CCN1C(=O)c2c(O)c(=O)c(C(=O)NCc3ccc(F)cc3F)cn2N2[C@H](COC)CC[C@@H]12 [II-084] | 38 | 97.5% | 39 | 
6 | CCN1C(=O)c2c(O)c(=O)c(C(=O)NCc3ccc(F)cc3F)cn2N2C[C@@H]3CC[C@@H](O3)[C@@H]12 [II-088] | 45 | 101% | 47 | 
7 | CN1C(=O)c2c(O)c(=O)c(C(=O)NCc3c(F)cc(F)cc3F)cn2N2CCCC[C@@H]12 [II-089] | 14 | 105% | 38 | 
8 | CN1C(=O)c2c(O)c(=O)c(C(=O)NCc3cccc(F)c3F)cn2N2CCCC[C@@H]12 [II-091] | 17 | 96.9% | 48 | 
9 | CN1C(=O)c2c(O)c(=O)c(C(=O)NCc3cccc(Cl)c3F)cn2N2CCOC[C@@H]12 [II-094] | 27 | 97.2% | 50 | 
10 | CN1C(=O)c2c(O)c(=O)c(C(=O)NCc3cccc(Cl)c3F)cn2N2CCCC[C@@]12C [II-129] | 26 | 88.6% | 44 | 
11 | CN1C(=O)c2c(O)c(=O)c(C(=O)NCc3cccc(Cl)c3F)cn2N2[C@H]3COC[C@H]3C[C@@H]12 [II-132] | 17 |  | 76 | 101%
12 | CC(C)N1C(=O)c2c(O)c(=O)c(C(=O)NCc3c(F)cc(F)cc3F)cn2N2[C@H]3COC[C@H]3C[C@@H]12 [II-133] | 34 |  | 17 | 73.3%
13 | CN1C(=O)c2c(O)c(=O)c(C(=O)NCc3cccc(Cl)c3F)cn2N2C[C@@H]3CCC[C@@H](C3)[C@@H]12 [II-139] | 10 | 75.4% | 18 | 
14 | CCN1C(=O)c2c(O)c(=O)c(C(=O)NCc3ccc(F)cc3F)cn2N2C[C@@H]3CCC[C@@H](O3)[C@@H]12 [II-150] | 16 | 98.6% | 26 | 
15 | CCN1C(=O)c2c(O)c(=O)c(C(=O)NCc3ccc(F)nc3F)cn2N2C[C@@H]3CC[C@@H](O3)[C@@H]12 [II-152] | 25 | 105% | 36 | 
